Experimental data reported in patent US20150141470A1, “DIAGNOSTIC AND TREATMENT METHODS IN PATIENTS HAVING OR AT RISK OF DEVELOPING RESISTANCE TO CANCER THERAPY” (The Broad Institute, Inc., priority 2012, published 2015).

Legend:
Assay type in all cases: cell-based
[1] = system: WM266.4; test: Immunoblots of MITF, SOX10, acetylated histone H3 and other proteins in melanoma cells; details: for acetylated histone H3: WM266.4, 18 hours; for SOX10 and MITF expression: WM266.4, independent of ERK phosphorylation
Protocol: (§1) Adherent cells were washed once with ice-cold PBS and lysed passively with 1% NP-40 buffer [150 mM NaCl, 50 mM Tris pH 7.5, 2 mM EDTA pH 8, 25 mM NaF and 1% NP-40] containing 2× protease inhibitors (Roche) and 1× Phosphatase Inhibitor Cocktails I and II (CalBioChem). Lysates were quantified (Bradford assay), normalized, reduced, denatured (95° C.) and resolved by SDS gel electrophoresis on 4-20% Tris/Glycine gels (Invitrogen). […] After incubation with the appropriate secondary antibody (anti-rabbit, anti-mouse or anti-goat IgG, IRDye-linked; 1:15,000 dilution; IRDye 800CW, 1:20,000 IRDye 680LT, LiCOR), proteins were imaged using an Odyssey CLx scanner (LiCOR).

[2] = system: A375; test: PLX4720 and MAPK inhibitor sensitivity of ORF-expressing A375 (secondary screen); details: for effect of ectopic GEF expression on sensitivity to the inhibitor: A375 transfected with GEF ORFS; for sensitivity of A375 to the inhibitor: parental A375 cell line
Protocol: A375 (1.5×10^3) and SKMEL28 cells (3×10^3) were seeded in 96-well plates for 18 h. ORF-expressing lentivirus was added at a 1:10 dilution in the presence of 8 μg/ml polybrene, and centrifuged at 2250 RPM and 37° C. for 1 h. Following centrifugation, virus-containing media was changed to normal growth media and allowed to incubate for 18 h. Twenty-four hours after infection, DMSO (1:1000) or 10× PLX4720 (in DMSO) was added to a final concentration of 100, 10, 1, 0.1, 0.01, 0.001, 0.0001 or 0.00001 μM. Cell viability was assayed using WST-1 (Roche), per manufacturer recommendation, 4 days after the addition of PLX4720.
Cultured cells were seeded into 96-well plates (3,000 cells per well) for all melanoma cell lines; 1,500 cells were seeded for A375. Twenty-four hours after seeding, serial dilutions of the relevant compound were prepared in DMSO added to cells, yielding final drug concentrations ranging from 100 μM to […], with the final volume of DMSO not exceeding 1%. Cells were incubated for 96 h following addition of drug. Cell viability was measured using the WST1 viability assay (Roche). Viability was calculated as a percentage of control (untreated cells) after background subtraction. A minimum of six replicates were performed for each cell line and drug combination. Data from growth-inhibition assays were modeled using a nonlinear regression curve fit with a sigmoid dose-response. […] Sigmoid-response curves that crossed the 50% inhibition point at or above 10 μM have GI50 values annotated as >10 μM. For single-dose studies, the identical protocol was followed, using a single dose of indicated drug (1 μM unless otherwise noted).

[3] = system: WM266.4; test: Single-dose cell viability of forskolin-treated cells with MAPK-pathway and HDAC inhibitors; details: sub-lethal doses; Panobinostat 10 nM, Vorinostat 1.5 μM, Entinostat 1.5 μM; 96 hrs
Protocol: Twenty-four hours after seeding, serial dilutions of the relevant compound were prepared in DMSO to 1000× stocks. Drug stocks were then diluted 1:100 into appropriate growth media and added to cells at a dilution of 1:10 (lx final), yielding drug concentrations ranging from 100 μM to 1×10-5 μM, with the final volume of DMSO not exceeding 1%. When indicated, forskolin (10 μM), IBMX (100 μM), dbcAMP (100 μM) were added concurrent with MAPK-pathway inhibitors. Cells were incubated for 96 h following addition of drug. Cell viability was measured using CellTiterGlo viability assay (Promega). Viability was calculated as a percentage of control (DMSO treated cells). A minimum of six replicates were performed for each cell line and drug combination. Data from growth-inhibition assays were modeled using a nonlinear regression curve fit with a sigmoid dose-response. […] For single-dose studies, WM266.4 were seeded at 5,000 cells/well in 96-well, white-walled, clear bottom plates and the identical protocol (above) was followed, using a single dose of indicated drug.

[4] = system: WM266.4; test: Western blot of CREB and ERK phosphorylation; details: WM266.4, 1 hr treatment
Protocol: as §1

[5] = system: WM266.4; test: Quantitative RT/PCR of MITF, FOS, NR4A1 and NR4A2 mRNA; details: within 1 hour of treatment, absence of MEK inhibitor
Protocol: mRNA was extracted from WM266.4 using the RNeasy kit (Qiagen) and homogenized using the Qiashredder kit (Qiagen). Total mRNA was used for subsequent reverse transcription using the SuperScript III First-Strand Synthesis SuperMix (Invitrogen). 5 μl of reverse-transcribed cDNA was used for quantitative PCR using SYBR Green PCR Master Mix and gene-specific primers, in quadruplicate, using an ABI PRISM 7900 Real Time PCR System. Primers used for detection were as follows; NR4A2 forward: 5′-GTTCAGGCGCAGTATGGGTC-3′ (SEQ ID NO: 7); NR4A2 reverse: 5′-AGAGTGGTAACTGTAGCTCTGAG-3′ (SEQ ID NO: 8); NR4A1 forward: 5′-ATG CCC TGT ATC CAA GCC C-3′ (SEQ ID NO: 9); NR4A1 reverse: 5′-GTGTAGCCGTCCATGAAGGT-3′ (SEQ ID NO: 10); DUSP6 forward: 5′-CTG CCG GGC GTT CTA CCT-3′ (SEQ ID NO: 11); DUSP6 reverse: 5′-CCAGCCAAGCAATGTACCAAG-3′ (SEQ ID NO: 12); MITF forward: 5′-TGC CCA GGC ATG AAC ACA C-3′ (SEQ ID NO: 13); MITF reverse: 5′-TGGGAAAAATACACGCTGTGAG-3′ (SEQ ID NO: 14); FOS forward: 5′-CACTCCAAGCGGAGACAGAC-3′ (SEQ ID NO: 15); FOS reverse: 5′-AGGTCATCAGGGATCTTGCAG-3′ (SEQ ID NO: 16); TBP forward: 5′-CCCGAAACGCCGAATATAATCC-3′ (SEQ ID No: 17); TBP reverse: 5′-GACTGTTCTTCACTCTTGGCTC-3′ (SEQ ID NO: 18). Relative expression was determined using the comparative CT method (Applied Biosystems).

O=S(=O)(NCCNC/C=C/c1ccc(Br)cc1)c1cccc2cnccc12 [H89]
effect on forskolin-mediated rescue of MITF protein expression ([1]; WM266.4, 10 μM H89 pre-treatment): largely abrogated

Cc1cnc(Nc2ccc(F)cc2Cl)nc1-c1c[nH]c(C(=O)N[C@H](CO)c2cccc(Cl)c2)c1 [VTX-11E]
effect of ectopic GEF expression on sensitivity to the inhibitor [2]: decreased sensitivity | sensitivity of A375 to the inhibitor [2]: sensitive

O=C(CCCCCCC(=O)Nc1ccccc1)NO [Vorinostat]
acetylated histone H3 [1]: increases | SOX10 and MITF expression [1]: reduction

Nc1ccccc1NC(=O)c1ccc(CNC(=O)OCc2cccnc2)cc1 [Entinostat]
sensitivity of forskolin-treated cells to MAPK-pathway inhibitors [3]: restored sensitivity to MAPK-pathway inhibitors to levels approaching parental cells

Cc1[nH]c2ccccc2c1CCNCc1ccc(/C=C/C(=O)NO)cc1 [Panobinostat]
sensitivity of forskolin-treated cells to MAPK-pathway inhibitors [3]: restored sensitivity to MAPK-pathway inhibitors to levels approaching parental cells | acetylated histone H3 [1]: increases | SOX10 and MITF expression [1]: reduction

Cn1cnc2c(F)c(Nc3ccc(Br)cc3Cl)c(C(=O)NOCCO)cc21 [AZD6244]
effect of ectopic GEF expression on sensitivity to the inhibitor [2]: decreased sensitivity | sensitivity of A375 to the inhibitor [2]: sensitive

C=C[C@@]1(C)CC(=O)[C@]2(O)[C@@]3(C)[C@@H](O)CCC(C)(C)[C@@H]3[C@H](O)[C@H](OC(C)=O)[C@@]2(C)O1 [forskolin]
ERK phosphorylation [4]: no effect | increases in mRNA expression of MITF, FOS, NR4A1 and NR4A2 [5]: 2- to 20 fold
